{"source": "patent US8425840B2", "about": "“Microchip and blood monitoring device” (Fujimori Kogyo Co., Ltd., priority 2007, dated 2013)", "test_system": "platelets", "experiment": "measurement of platelet function using the thrombus monitoring system C (microchip 4, citrated whole blood mixed with ADP under flow)", "assay_type": "cell-based", "details": "for time after the beginning of the measurement at which an obvious platelet aggregate was formed in the thrombus formation chamber: collagen/PT reagent coated chamber", "protocol": "The stirring section 413 was in the shape of a circle having a diameter of […] and narrowing in fan-like fashion in the direction toward the downstream, and its depth was 1.2 mm. The stirring bar 417 was a stirring bar in the shape of a cylinder having a length of 2 mm and a diameter of 1 mm, whose surface was coated with nickel.\nAs the thrombus-inducing agent, 24 μL of a mixture of collagen type I (Nitta Gelatin Inc.) and PT reagent (Sysmex Corporation) was applied in a square shape sizing 1 cm×1 cm, and dried under reduced pressure at −0.08 MPa for 3 hours. The coating with the thrombus-inducing material was carried out such that the merged channel 403 was not passing the center of the square area on which the thrombus-inducing material was applied, that is, such that the merged channel 403 was passing 2.5 mm away from an edge of the square, when the substrate 400 and the substrate 410 were bonded to each other. As the collagen type I, one having a concentration of 3 mg/ml was used. As the PT reagent, one prepared by dissolving 1 vial of PT reagent manufactured by Sysmex Corporation in 2 ml of purified water and dialyzing the resulting solution against purified water overnight, followed by mixing the resultant at a ratio of 1:1 was used.\nTo the blood reservoir 433, the first pump 420 was connected, and the first connection nozzle 435 and the second connection nozzle 436 were connected to the second pump 421 and the third pump 422, respectively.\nMineral oil was filled in the first pump 420; purified water and 1 μM or 2 μM ADP solution were filled in the second pump 421; and 0.5 M EDTA (pH 10) solution was filled in the third pump 422.\nBlood prepared by mixing the blood immediately after collection with 3.2% sodium citrate solution at a volume ratio between the blood and the sodium citrate solution being 9:1 was filled in the blood reservoir 433.\nThe programs executed for the first pump 420, second pump 421 and the third pump 422 were the same with those in Example 7 (Table 3). […]", "data": [{"smiles": "Nc1ncnc2c1ncn2[C@@H]1O[C@H](COP(=O)(O)OP(=O)(O)O)[C@@H](O)[C@H]1O", "note": "[ADP, adenosine diphosphate]", "values": [{"measurement": "time after the beginning of the measurement at which an obvious platelet aggregate was formed in the thrombus formation chamber", "setting": "1 μM ADP solution in second pump", "result": 15, "unit": "min"}, {"measurement": "increase in pressure due to platelet aggregate (pressure sensor)", "setting": "1 μM or 2 μM ADP in second pump", "result": "no increase in pressure occurred"}, {"measurement": "time after the beginning of the measurement at which an obvious platelet aggregate was formed in the thrombus formation chamber", "setting": "2 μM ADP solution in second pump", "result": 10, "unit": "min"}]}]}
